Test results as given in patent US9260439B2, “Dihydropyrrolopyrimidine derivatives” (PFIZER INC., priority 2014, dated 2016).

These molecules were tested against truncated PI3Kα (p110α/iSH2 p85α) (Homo sapiens (Human), UniProt P42336) (assay: PI3KA_Act fluorescence polarization kinase assay (Ki)). Settings: 1 mM ATP.
Sequence of truncated PI3Kα (p110α/iSH2 p85α) (P42336 whole entry, the tested form may be a part): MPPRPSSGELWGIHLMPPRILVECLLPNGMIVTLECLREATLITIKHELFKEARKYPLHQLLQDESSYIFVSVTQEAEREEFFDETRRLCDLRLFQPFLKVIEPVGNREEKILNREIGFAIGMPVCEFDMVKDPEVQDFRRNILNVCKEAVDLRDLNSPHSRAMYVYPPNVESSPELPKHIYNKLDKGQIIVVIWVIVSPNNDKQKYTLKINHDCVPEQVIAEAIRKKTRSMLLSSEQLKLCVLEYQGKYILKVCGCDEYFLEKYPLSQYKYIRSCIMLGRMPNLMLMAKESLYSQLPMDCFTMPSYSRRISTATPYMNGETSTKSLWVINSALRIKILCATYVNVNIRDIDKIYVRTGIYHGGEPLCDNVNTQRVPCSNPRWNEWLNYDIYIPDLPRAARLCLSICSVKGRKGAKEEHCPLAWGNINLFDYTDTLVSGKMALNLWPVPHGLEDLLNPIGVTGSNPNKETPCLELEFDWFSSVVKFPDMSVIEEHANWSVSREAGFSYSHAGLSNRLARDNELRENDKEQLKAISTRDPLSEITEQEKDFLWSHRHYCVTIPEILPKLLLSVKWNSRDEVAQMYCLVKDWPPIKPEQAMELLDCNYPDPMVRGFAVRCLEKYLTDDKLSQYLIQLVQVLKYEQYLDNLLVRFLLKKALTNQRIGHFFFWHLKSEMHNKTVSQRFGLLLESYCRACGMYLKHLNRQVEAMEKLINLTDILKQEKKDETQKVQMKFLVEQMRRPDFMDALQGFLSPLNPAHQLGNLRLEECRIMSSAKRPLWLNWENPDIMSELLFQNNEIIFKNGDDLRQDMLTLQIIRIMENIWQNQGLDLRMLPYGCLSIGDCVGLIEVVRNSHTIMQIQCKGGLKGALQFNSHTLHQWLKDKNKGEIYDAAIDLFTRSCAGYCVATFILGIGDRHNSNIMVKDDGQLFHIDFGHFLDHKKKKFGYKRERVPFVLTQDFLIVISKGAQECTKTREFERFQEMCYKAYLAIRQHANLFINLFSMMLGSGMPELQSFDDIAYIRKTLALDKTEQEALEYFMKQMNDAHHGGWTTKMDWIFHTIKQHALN
Type: biochemical
Method in brief: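 p110α/iSH2 p85α (0.5 nM) was reacted with 30 μM sonicated PIP2 in 50 mM HEPES pH 7.4, 150 mM NaCl, 5 mM MgCl2, 1 mM DTT and 0.05% CHAPS for 30 min at room temperature, then stopped with EDTA. PIP3 was detected by fluorescence polarization (GST-Grp1 PH domain/TAMRA-PIP3), and Ki came from a Morrison tight-binding fit.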
With `C[C@]1(N2CCc3c(-c4cnc(N)nc4)nc(N4CCOCC4)nc32)CCN(C(=O)C2CCN2)C1.Cl` (stereo partly drawn) [Example 348, {(3S)-3-[4-(2-aminopyrimidin-5-yl)-2-(morpholin-4-yl)-5,6-dihydro-7H-pyrrolo[2,3-d]pyrimidin-7-yl]-3-methylpyrrolidin-1-yl}(azetidin-2-yl)methanone hydrochloride] the “PI3KA_Act Ki” value was 0.066 nM.
With `C[C@]1(N2CCc3c(-c4cnc(N)nc4)nc(N4CCOCC4)nc32)CCN(C(=O)C2CNC2)C1.Cl` [Example 349, {(3S)-3-[4-(2-aminopyrimidin-5-yl)-2-(morpholin-4-yl)-5,6-dihydro-7H-pyrrolo[2,3-d]pyrimidin-7-yl]-3-methylpyrrolidin-1-yl}(azetidin-3-yl)methanone hydrochloride] the “PI3KA_Act Ki” value was 0.026 nM.
With `C[C@]1(N2CCc3c(-c4cnc(N)nc4)nc(N4CCOCC4)nc32)CCN(C(=O)[C@]2(C)CCN2)C1.Cl` [Example 350, {(3S)-3-[4-(2-aminopyrimidin-5-yl)-2-(morpholin-4-yl)-5,6-dihydro-7H-pyrrolo[2,3-d]pyrimidin-7-yl]-3-methylpyrrolidin-1-yl}[(2S)-2-methylazetidin-2-yl]methanone hydrochloride] the “PI3KA_Act Ki” value was 0.045 nM.
For `C[C@]1(N2CCc3c(-c4cnc(N)nc4)nc(N4CCOCC4)nc32)CCN(C(=O)[C@@]2(C)CCN2)C1` [Example 351, {(3S)-3-[4-(2-aminopyrimidin-5-yl)-2-(morpholin-4-yl)-5,6-dihydro-7H-pyrrolo[2,3-d]pyrimidin-7-yl]-3-methylpyrrolidin-1-yl}[(2R)-2-methylazetidin-2-yl]methanone], the “PI3KA_Act Ki” value was 0.059 nM.
`C[C@]1(N2CCc3c(-c4cnc(N)nc4)nc(N4CCOCC4)nc32)CCN(C(=O)C2(F)CNC2)C1.Cl` [Example 352, {(3S)-3-[4-(2-aminopyrimidin-5-yl)-2-(morpholin-4-yl)-5,6-dihydro-7H-pyrrolo[2,3-d]pyrimidin-7-yl]-3-methylpyrrolidin-1-yl}(3-fluoroazetidin-3-yl)methanone hydrochloride] was tested, and the “PI3KA_Act Ki” value was less than 0.018 nM.
With `CN1CC[C@@H]1C(=O)N1CC[C@](C)(N2CCc3c(-c4cnc(N)nc4)nc(N4CCOCC4)nc32)C1` [Example 353, {(3S)-3-[4-(2-aminopyrimidin-5-yl)-2-(morpholin-4-yl)-5,6-dihydro-7H-pyrrolo[2,3-d]pyrimidin-7-yl]-3-methylpyrrolidin-1-yl}[(2R)-1-methylazetidin-2-yl]methanone] the “PI3KA_Act Ki” value was 0.078 nM.
With `CN1CC[C@H]1C(=O)N1CC[C@](C)(N2CCc3c(-c4cnc(N)nc4)nc(N4CCOCC4)nc32)C1` [Example 354, {(3S)-3-[4-(2-aminopyrimidin-5-yl)-2-(morpholin-4-yl)-5,6-dihydro-7H-pyrrolo[2,3-d]pyrimidin-7-yl]-3-methylpyrrolidin-1-yl}[(2S)-1-methylazetidin-2-yl]methanone] the “PI3KA_Act Ki” value was 0.049 nM.
With `CN1CCC1(C)C(=O)N1CC[C@](C)(N2CCc3c(-c4cnc(N)nc4)nc(N4CCOCC4)nc32)C1` (stereo partly drawn) [Example 355, {(3S)-3-[4-(2-aminopyrimidin-5-yl)-2-(morpholin-4-yl)-5,6-dihydro-7H-pyrrolo[2,3-d]pyrimidin-7-yl]-3-methylpyrrolidin-1-yl}(1,2-dimethylazetidin-2-yl)methanone] the “PI3KA_Act Ki” value was 0.102 nM.
With `CN1CC(C(=O)N2CC[C@](C)(N3CCc4c(-c5cnc(N)nc5)nc(N5CCOCC5)nc43)C2)C1` [Example 356, {(3S)-3-[4-(2-aminopyrimidin-5-yl)-2-(morpholin-4-yl)-5,6-dihydro-7H-pyrrolo[2,3-d]pyrimidin-7-yl]-3-methylpyrrolidin-1-yl}(1-methylazetidin-3-yl)methanone] the “PI3KA_Act Ki” value was 0.037 nM.
For `CC(C)(C)OC(=O)N1CC[C@H]1C(=O)N1CC[C@@](C)(N2CCc3c(-c4cnc(N)nc4)nc(N4CCOCC4)nc32)C1` [Example 357, tert-butyl (2S)-2-({(3R)-3-[4-(2-aminopyrimidin-5-yl)-2-(morpholin-4-yl)-5,6-dihydro-7H-pyrrolo[2,3-d]pyrimidin-7-yl]-3-methylpyrrolidin-1-yl}carbonyl)azetidine-1-carboxylate], the “PI3KA_Act Ki” value was 0.144 nM.
For `CC(C)(C)OC(=O)N1CCC1C(=O)N1CC[C@](C)(N2CCc3c(-c4cnc(N)nc4)nc(N4CCOCC4)nc32)C1` (stereo partly drawn) [Example 358, tert-butyl 2-({(3S)-3-[4-(2-aminopyrimidin-5-yl)-2-(morpholin-4-yl)-5,6-dihydro-7H-pyrrolo[2,3-d]pyrimidin-7-yl]-3-methylpyrrolidin-1-yl}carbonyl)azetidine-1-carboxylate], the “PI3KA_Act Ki” value was 0.171 nM.
In the case of `CC(C)(C)OC(=O)N1CC(F)(C(=O)N2CC[C@](C)(N3CCc4c(-c5cnc(N)nc5)nc(N5CCOCC5)nc43)C2)C1` [Example 359, tert-butyl 3-({(3S)-3-[4-(2-aminopyrimidin-5-yl)-2-(morpholin-4-yl)-5,6-dihydro-7H-pyrrolo[2,3-d]pyrimidin-7-yl]-3-methylpyrrolidin-1-yl}carbonyl)-3-fluoroazetidine-1-carboxylate], the “PI3KA_Act Ki” value is reported as 0.128 nM.
For `C[C@]1(N2CCc3c(-c4cnc(N)nc4)nc(N4CCOCC4)nc32)CCN(C(=O)N2CCC2)C1` [Example 360, {(3S)-3-[4-(2-aminopyrimidin-5-yl)-2-(morpholin-4-yl)-5,6-dihydro-7H-pyrrolo[2,3-d]pyrimidin-7-yl]-3-methylpyrrolidin-1-yl}(azetidin-1-yl)methanone], the “PI3KA_Act Ki” value was less than 0.018 nM.
With `C[C@@]1(N2CCc3c(-c4cnc(N)nc4)nc(N4CCOCC4)nc32)CCN(C(=O)N2CCC2)C1` [Example 361, {(3R)-3-[4-(2-aminopyrimidin-5-yl)-2-(morpholin-4-yl)-5,6-dihydro-7H-pyrrolo[2,3-d]pyrimidin-7-yl]-3-methylpyrrolidin-1-yl}(azetidin-1-yl)methanone] the “PI3KA_Act Ki” value was 0.078 nM.
For `CC1(C)CN[C@@H]1C(=O)N1CC[C@](C)(N2CCc3c(-c4cnc(N)nc4)nc(N4CCOCC4)nc32)C1.Cl` [Example 362, {(3S)-3-[4-(2-aminopyrimidin-5-yl)-2-(morpholin-4-yl)-5,6-dihydro-7H-pyrrolo[2,3-d]pyrimidin-7-yl]-3-methylpyrrolidin-1-yl}[(2S)-3,3-dimethylazetidin-2-yl]methanone hydrochloride], the “PI3KA_Act Ki” value was 0.041 nM.
For `C[C@]1(N2CCc3c(-c4cnc(N)nc4)nc(N4CCOCC4)nc32)CCN(C(=O)N2CC(C#N)C2)C1` [Example 363, 1-({(3S)-3-[4-(2-aminopyrimidin-5-yl)-2-(morpholin-4-yl)-5,6-dihydro-7H-pyrrolo[2,3-d]pyrimidin-7-yl]-3-methylpyrrolidin-1-yl}carbonyl)azetidine-3-carbonitrile], the “PI3KA_Act Ki” value was 0.039 nM.
In the case of `C[C@@]1(N2CCc3c(-c4cnc(N)nc4)nc(N4CCOCC4)nc32)CCN(C(=O)N2CC(C#N)C2)C1` [Example 364, 1-({(3R)-3-[4-(2-aminopyrimidin-5-yl)-2-(morpholin-4-yl)-5,6-dihydro-7H-pyrrolo[2,3-d]pyrimidin-7-yl]-3-methylpyrrolidin-1-yl}carbonyl)azetidine-3-carbonitrile], the “PI3KA_Act Ki” value is reported as 0.262 nM.
`C[C@@]1(N2CCc3c(-c4cnc(N)nc4)nc(N4CCOCC4)nc32)CCN(C(=O)N2CC(O)C2)C1` [Example 365, {(3R)-3-[4-(2-aminopyrimidin-5-yl)-2-(morpholin-4-yl)-5,6-dihydro-7H-pyrrolo[2,3-d]pyrimidin-7-yl]-3-methylpyrrolidin-1-yl}(3-hydroxyazetidin-1-yl)methanone] was tested, and the “PI3KA_Act Ki” value was 0.063 nM.
For `C[C@]1(N2CCc3c(-c4cnc(N)nc4)nc(N4CCOCC4)nc32)CCN(C(=O)N2CC(O)C2)C1` [Example 366, {(3S)-3-[4-(2-aminopyrimidin-5-yl)-2-(morpholin-4-yl)-5,6-dihydro-7H-pyrrolo[2,3-d]pyrimidin-7-yl]-3-methylpyrrolidin-1-yl}(3-hydroxyazetidin-1-yl)methanone], the “PI3KA_Act Ki” value was 0.021 nM.
In the case of `COC1CN(C(=O)N2CC[C@](C)(N3CCc4c(-c5cnc(N)nc5)nc(N5CCOCC5)nc43)C2)C1` [Example 367, {(3S)-3-[4-(2-aminopyrimidin-5-yl)-2-(morpholin-4-yl)-5,6-dihydro-7H-pyrrolo[2,3-d]pyrimidin-7-yl]-3-methylpyrrolidin-1-yl}(3-methoxyazetidin-1-yl)methanone], the “PI3KA_Act Ki” value is reported as less than 0.018 nM.
With `COC1CN(C(=O)N2CC[C@@](C)(N3CCc4c(-c5cnc(N)nc5)nc(N5CCOCC5)nc43)C2)C1` [Example 368, {(3R)-3-[4-(2-aminopyrimidin-5-yl)-2-(morpholin-4-yl)-5,6-dihydro-7H-pyrrolo[2,3-d]pyrimidin-7-yl]-3-methylpyrrolidin-1-yl}(3-methoxyazetidin-1-yl)methanone] the “PI3KA_Act Ki” value was 0.127 nM.
With `CC1(O)CN(C(=O)N2CC[C@](C)(N3CCc4c(-c5cnc(N)nc5)nc(N5CCOCC5)nc43)C2)C1` [Example 369, {(3S)-3-[4-(2-aminopyrimidin-5-yl)-2-(morpholin-4-yl)-5,6-dihydro-7H-pyrrolo[2,3-d]pyrimidin-7-yl]-3-methylpyrrolidin-1-yl}(3-hydroxy-3-methylazetidin-1-yl)methanone] the “PI3KA_Act Ki” value was less than 0.018 nM.
With `CC(C)(C)OC(=O)N1CC[C@H]1C(=O)N1CC[C@](C)(N2CCc3c(-c4cnc(N)nc4)nc(N4CCOCC4)nc32)C1` [Example 370, tert-butyl (2S)-2-({(3S)-3-[4-(2-aminopyrimidin-5-yl)-2-(morpholin-4-yl)-5,6-dihydro-7H-pyrrolo[2,3-d]pyrimidin-7-yl]-3-methylpyrrolidin-1-yl}carbonyl)azetidine-1-carboxylate] the “PI3KA_Act Ki” value was 0.184 nM.
For `C[C@]1(N2CCc3c(-c4cnc(N)nc4)nc(N4CCOCC4)nc32)CCN(C(=O)[C@@H]2CCCO2)C1` [Example 371, {(3S)-3-[4-(2-aminopyrimidin-5-yl)-2-(morpholin-4-yl)-5,6-dihydro-7H-pyrrolo[2,3-d]pyrimidin-7-yl]-3-methylpyrrolidin-1-yl}[(2S)-tetrahydrofuran-2-yl]methanone], the “PI3KA_Act Ki” value was 0.091 nM.
